These results are taken from US7817840B2, “Predicting hepatotoxicity using cell based assays” (Cytokinetics, Inc., priority 2003, dated 2010).

The subject of data set [1] is Primary rat hepatocytes. In words: MTS/PMS cell viability (hepatotoxicity) assay, 24-hour exposure. It counts as cell-based. The following applies: Hepatocyte, 9-point dilution series, read-out: IC50 (cell viability, formazan absorbance as percent of untreated control). The protocol: To measure the viability of hepatocytes after plating, an aqueous CellTiter Non-radioactive Cell Proliferation Assay may be used (Promega, Madison, Wis.). This assay can also be used to measure the hepatoxicity of a test compound.
In one example of the assay, hepatoxicity is determined by assaying rat hepatocytes for viability following a 24-hour exposure to a 9-point dilution series of compound (to allow assessment of dose). Cell viability is determined by measuring the absorbance of formazon, a product formed by the bioreduction of MTS/PMS, commercially available reagents. […]
With reference to FIG. 6, in a sterile 2 mL v-bottom assay block, dispense 2.5 μl of compound at 400× highest desired concentration to wells in column 3, rows B through G. (six different compounds per block, one for each row, edge wells are not used due to evaporation). […] Next, add 250 μL of media containing 0.2% Triton X-100 to column 2, rows E, F, and G. ODs (optical density or absorbance) from this well will be used to subtract out for background absorbance of dead cells and vehicle. […]
Day 3—MTS Addition and OD Reading
A. After 24 hours of incubation with drug, remove plates from incubator and add 40 μl MTS/PMS to each well. […] Read ODs at 490 nm after a 5 second shaking cycle in a ninety-six well spectrophotometer. […]

The subject of data set [2] is human hepatoma cell line HepG2. The settings on record: HepG2 cells incubated with compound; previous studies; cited from earlier work.
Data set [3] deals with bile flow. The following applies: rats; cited from earlier work.

By IC50 is commonly meant the midpoint of a concentration-inhibition curve. Consider `O=c1ccc2ccccc2o1` [Coumarin], for which the IC50 in data set [1] was approximately 53 µM.
Turning to estrogen, in data set [2], the “Nile Red binding (lipid accumulation)” value was “increased Nile Red binding”.
Turning to `C=C1[C@@H](C)[C@H]2[C@H](Cc3ccccc3)NC(=O)[C@]23OC(=O)/C=C/[C@H](O)CCC[C@@H](C)C/C=C/[C@H]3[C@@H]1O` [cytochalasin B], the “effect on bile flow” value in data set [3] was “prompt arrest of bile flow”.
As to `CCCC(CCC)C(=O)O` [valproic acid], the “Nile Red binding (lipid accumulation)” value in data set [2] is “increased Nile Red binding”.
Regarding `CCSCC[C@H](N)C(=O)O` [ethionine], in data set [2], the “Nile Red binding (lipid accumulation)” value is recorded as “increased Nile Red binding”.
